Source: article PMC9133015 (Nature Communications, 2022)
Values joined by “and” are separate entries in the source; they are usually repeats but may differ in a detail not shown here. Equal entries are not always repeated.

Key:
Experiment in all cases: Kinase inhibitor specificity profiling (Reaction Biology Corporation)
Type in all cases: biochemical
Design in all cases: % Enzyme Activity (relative to DMSO controls): concentration or dose not given beside the values
[1] = biological target: T1, panel of 370 protein kinases (Homo sapiens, UniProt O00141); settings: 2 h, kinase SGK1; read-out: % Enzyme Activity (relative to DMSO controls)
T1 construct: purchased Reaction Biology Corporation (assay service)

[2] = biological target: T2, panel of 370 protein kinases (Homo sapiens, UniProt Q15375); settings: 2 h, kinase EPHA7; read-out: % Enzyme Activity (relative to DMSO controls)
T2 construct: purchased Reaction Biology Corporation (assay service)

[3] = biological target: T3, panel of 370 protein kinases (Homo sapiens, UniProt Q9Y4K4); settings: 2 h, kinase KHS/MAP4K5; read-out: % Enzyme Activity (relative to DMSO controls)
T3 construct: purchased Reaction Biology Corporation (assay service)
T3 sequence (Q9Y4K4 whole entry): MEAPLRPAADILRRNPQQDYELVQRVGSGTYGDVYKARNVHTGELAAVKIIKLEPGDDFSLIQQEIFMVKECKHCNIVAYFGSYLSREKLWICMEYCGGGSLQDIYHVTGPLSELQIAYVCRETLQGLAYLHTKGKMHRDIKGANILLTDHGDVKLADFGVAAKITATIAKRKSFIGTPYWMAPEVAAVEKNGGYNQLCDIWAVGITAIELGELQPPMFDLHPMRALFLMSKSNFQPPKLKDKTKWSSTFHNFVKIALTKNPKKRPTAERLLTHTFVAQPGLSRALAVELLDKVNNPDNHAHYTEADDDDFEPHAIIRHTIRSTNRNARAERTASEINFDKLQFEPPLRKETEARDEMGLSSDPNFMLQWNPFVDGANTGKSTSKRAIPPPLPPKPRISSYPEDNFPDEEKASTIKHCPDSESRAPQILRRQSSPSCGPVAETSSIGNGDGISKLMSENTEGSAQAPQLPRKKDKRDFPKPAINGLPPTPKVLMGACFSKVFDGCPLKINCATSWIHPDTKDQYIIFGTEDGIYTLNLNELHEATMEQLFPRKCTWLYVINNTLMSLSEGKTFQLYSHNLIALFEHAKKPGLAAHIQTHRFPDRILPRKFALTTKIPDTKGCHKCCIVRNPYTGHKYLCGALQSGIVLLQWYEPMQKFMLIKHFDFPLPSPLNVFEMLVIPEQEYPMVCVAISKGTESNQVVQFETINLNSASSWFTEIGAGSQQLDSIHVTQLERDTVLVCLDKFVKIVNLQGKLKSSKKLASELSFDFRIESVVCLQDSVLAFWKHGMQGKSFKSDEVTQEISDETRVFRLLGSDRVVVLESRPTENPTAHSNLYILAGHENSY

[4] = biological target: T4, panel of 370 protein kinases (Homo sapiens, UniProt Q9H2K8); settings: 2 h, kinase TAOK3/JIK; read-out: % Enzyme Activity (relative to DMSO controls)
T4 construct: purchased Reaction Biology Corporation (assay service)

[5] = biological target: T5, panel of 370 protein kinases (Homo sapiens, UniProt P07332); settings: 2 h, kinase FES/FPS; read-out: % Enzyme Activity (relative to DMSO controls)
T5 construct: purchased Reaction Biology Corporation (assay service)

[6] = biological target: T6, panel of 370 protein kinases (Homo sapiens, UniProt Q92630); settings: 2 h, kinase DYRK2; read-out: % Enzyme Activity (relative to DMSO controls)
T6 construct: purchased Reaction Biology Corporation (assay service)

[7] = biological target: T7, panel of 370 protein kinases (Homo sapiens, UniProt Q00536); settings: 2 h, kinase CDK16/cyclin Y (PCTAIRE); read-out: % Enzyme Activity (relative to DMSO controls)
T7 construct: purchased Reaction Biology Corporation (assay service)

[8] = biological target: T8, panel of 370 protein kinases (Homo sapiens, UniProt Q9H2G2); settings: 2 h, kinase SLK/STK2; read-out: % Enzyme Activity (relative to DMSO controls)
T8 construct: purchased Reaction Biology Corporation (assay service)

[9] = biological target: T9, panel of 370 protein kinases (Homo sapiens, UniProt Q05513); settings: 2 h, kinase PKCzeta; read-out: % Enzyme Activity (relative to DMSO controls)
T9 construct: purchased Reaction Biology Corporation (assay service)

[10] = biological target: T10, panel of 370 protein kinases (Homo sapiens, UniProt Q9H2X6); settings: 2 h, kinase HIPK2; read-out: % Enzyme Activity (relative to DMSO controls)
T10 construct: purchased Reaction Biology Corporation (assay service)

[11] = biological target: T11, panel of 370 protein kinases (Homo sapiens, UniProt Q96PF2); settings: 2 h, kinase TSSK2; read-out: % Enzyme Activity (relative to DMSO controls)
T11 construct: purchased Reaction Biology Corporation (assay service)

[12] = biological target: T12, panel of 370 protein kinases (Homo sapiens, UniProt Q9UKI8); settings: 2 h, kinase TLK1; read-out: % Enzyme Activity (relative to DMSO controls)
T12 construct: purchased Reaction Biology Corporation (assay service)

[13] = biological target: T13, panel of 370 protein kinases (Homo sapiens, UniProt Q8IYT8); settings: 2 h, kinase ULK2; read-out: % Enzyme Activity (relative to DMSO controls)
T13 construct: purchased Reaction Biology Corporation (assay service)
T13 sequence (Q8IYT8 whole entry): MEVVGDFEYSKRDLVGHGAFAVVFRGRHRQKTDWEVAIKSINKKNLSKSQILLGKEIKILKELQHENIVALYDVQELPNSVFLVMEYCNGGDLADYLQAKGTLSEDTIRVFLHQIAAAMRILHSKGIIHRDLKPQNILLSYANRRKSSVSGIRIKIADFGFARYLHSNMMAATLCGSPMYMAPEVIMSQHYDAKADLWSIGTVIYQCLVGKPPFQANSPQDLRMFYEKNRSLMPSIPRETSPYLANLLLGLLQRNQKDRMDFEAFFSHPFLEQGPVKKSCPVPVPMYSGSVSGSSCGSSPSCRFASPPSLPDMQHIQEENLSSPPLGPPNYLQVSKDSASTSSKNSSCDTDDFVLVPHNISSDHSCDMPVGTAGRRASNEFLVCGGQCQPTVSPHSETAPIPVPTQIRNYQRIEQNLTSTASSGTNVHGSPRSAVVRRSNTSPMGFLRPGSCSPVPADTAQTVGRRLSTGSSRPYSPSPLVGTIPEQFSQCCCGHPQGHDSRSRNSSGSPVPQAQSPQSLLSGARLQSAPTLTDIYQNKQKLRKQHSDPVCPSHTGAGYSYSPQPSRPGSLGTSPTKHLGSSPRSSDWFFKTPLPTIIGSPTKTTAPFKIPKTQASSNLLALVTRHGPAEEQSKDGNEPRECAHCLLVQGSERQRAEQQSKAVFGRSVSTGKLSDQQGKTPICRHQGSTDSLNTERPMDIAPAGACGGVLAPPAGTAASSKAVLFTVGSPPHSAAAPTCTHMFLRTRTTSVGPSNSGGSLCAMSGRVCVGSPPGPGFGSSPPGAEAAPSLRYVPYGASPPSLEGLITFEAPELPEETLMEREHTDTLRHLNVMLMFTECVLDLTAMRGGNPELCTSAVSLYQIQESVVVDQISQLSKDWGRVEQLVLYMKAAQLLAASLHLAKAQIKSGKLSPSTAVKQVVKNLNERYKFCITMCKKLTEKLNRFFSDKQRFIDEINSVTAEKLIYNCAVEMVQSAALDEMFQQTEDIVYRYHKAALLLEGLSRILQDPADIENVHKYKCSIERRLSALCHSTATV

[14] = biological target: T14, panel of 370 protein kinases (Homo sapiens, UniProt Q6P3R8); settings: 2 h, kinase NEK5; read-out: % Enzyme Activity (relative to DMSO controls)
T14 construct: purchased Reaction Biology Corporation (assay service)

[15] = biological target: T15, panel of 370 protein kinases (Homo sapiens, UniProt Q9NYL2); settings: 2 h, kinase ZAK/MLTK; read-out: % Enzyme Activity (relative to DMSO controls)
T15 construct: purchased Reaction Biology Corporation (assay service)

[16] = biological target: T16, panel of 370 protein kinases (Homo sapiens, UniProt Q13873); settings: kinase BMPR2
T16 construct: purchased Reaction Biology Corporation (assay service)
T16 sequence (Q13873 27-1038): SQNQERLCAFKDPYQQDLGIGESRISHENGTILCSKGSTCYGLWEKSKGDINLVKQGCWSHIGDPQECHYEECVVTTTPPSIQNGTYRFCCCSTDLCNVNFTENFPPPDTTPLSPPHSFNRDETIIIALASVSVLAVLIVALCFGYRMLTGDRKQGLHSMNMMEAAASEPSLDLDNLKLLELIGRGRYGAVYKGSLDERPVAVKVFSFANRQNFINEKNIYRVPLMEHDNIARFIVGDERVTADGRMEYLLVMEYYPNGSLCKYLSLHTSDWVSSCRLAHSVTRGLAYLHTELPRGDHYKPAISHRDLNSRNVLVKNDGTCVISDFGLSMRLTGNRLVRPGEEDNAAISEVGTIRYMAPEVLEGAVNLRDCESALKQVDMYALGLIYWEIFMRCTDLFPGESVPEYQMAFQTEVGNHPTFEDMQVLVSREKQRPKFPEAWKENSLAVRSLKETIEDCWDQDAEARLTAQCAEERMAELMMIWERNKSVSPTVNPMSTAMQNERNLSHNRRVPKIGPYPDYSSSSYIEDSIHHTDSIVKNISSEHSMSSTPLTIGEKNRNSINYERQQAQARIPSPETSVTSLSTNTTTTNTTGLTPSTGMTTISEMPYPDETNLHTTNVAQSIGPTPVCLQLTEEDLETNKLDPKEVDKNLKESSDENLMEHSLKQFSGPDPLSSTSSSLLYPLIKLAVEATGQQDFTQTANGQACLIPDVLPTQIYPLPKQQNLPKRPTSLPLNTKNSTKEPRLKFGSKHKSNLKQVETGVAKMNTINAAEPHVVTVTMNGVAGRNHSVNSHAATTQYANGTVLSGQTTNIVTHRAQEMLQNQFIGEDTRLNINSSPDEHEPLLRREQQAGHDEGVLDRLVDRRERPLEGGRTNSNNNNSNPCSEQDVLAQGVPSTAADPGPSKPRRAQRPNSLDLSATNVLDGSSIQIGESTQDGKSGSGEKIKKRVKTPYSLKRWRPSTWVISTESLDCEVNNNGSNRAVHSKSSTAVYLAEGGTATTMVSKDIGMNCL

[17] = biological target: T17, panel of 370 protein kinases (Homo sapiens, UniProt P08581); settings: kinase c-MET
T17 construct: purchased Reaction Biology Corporation (assay service)
T17 sequence (P08581 25-1390): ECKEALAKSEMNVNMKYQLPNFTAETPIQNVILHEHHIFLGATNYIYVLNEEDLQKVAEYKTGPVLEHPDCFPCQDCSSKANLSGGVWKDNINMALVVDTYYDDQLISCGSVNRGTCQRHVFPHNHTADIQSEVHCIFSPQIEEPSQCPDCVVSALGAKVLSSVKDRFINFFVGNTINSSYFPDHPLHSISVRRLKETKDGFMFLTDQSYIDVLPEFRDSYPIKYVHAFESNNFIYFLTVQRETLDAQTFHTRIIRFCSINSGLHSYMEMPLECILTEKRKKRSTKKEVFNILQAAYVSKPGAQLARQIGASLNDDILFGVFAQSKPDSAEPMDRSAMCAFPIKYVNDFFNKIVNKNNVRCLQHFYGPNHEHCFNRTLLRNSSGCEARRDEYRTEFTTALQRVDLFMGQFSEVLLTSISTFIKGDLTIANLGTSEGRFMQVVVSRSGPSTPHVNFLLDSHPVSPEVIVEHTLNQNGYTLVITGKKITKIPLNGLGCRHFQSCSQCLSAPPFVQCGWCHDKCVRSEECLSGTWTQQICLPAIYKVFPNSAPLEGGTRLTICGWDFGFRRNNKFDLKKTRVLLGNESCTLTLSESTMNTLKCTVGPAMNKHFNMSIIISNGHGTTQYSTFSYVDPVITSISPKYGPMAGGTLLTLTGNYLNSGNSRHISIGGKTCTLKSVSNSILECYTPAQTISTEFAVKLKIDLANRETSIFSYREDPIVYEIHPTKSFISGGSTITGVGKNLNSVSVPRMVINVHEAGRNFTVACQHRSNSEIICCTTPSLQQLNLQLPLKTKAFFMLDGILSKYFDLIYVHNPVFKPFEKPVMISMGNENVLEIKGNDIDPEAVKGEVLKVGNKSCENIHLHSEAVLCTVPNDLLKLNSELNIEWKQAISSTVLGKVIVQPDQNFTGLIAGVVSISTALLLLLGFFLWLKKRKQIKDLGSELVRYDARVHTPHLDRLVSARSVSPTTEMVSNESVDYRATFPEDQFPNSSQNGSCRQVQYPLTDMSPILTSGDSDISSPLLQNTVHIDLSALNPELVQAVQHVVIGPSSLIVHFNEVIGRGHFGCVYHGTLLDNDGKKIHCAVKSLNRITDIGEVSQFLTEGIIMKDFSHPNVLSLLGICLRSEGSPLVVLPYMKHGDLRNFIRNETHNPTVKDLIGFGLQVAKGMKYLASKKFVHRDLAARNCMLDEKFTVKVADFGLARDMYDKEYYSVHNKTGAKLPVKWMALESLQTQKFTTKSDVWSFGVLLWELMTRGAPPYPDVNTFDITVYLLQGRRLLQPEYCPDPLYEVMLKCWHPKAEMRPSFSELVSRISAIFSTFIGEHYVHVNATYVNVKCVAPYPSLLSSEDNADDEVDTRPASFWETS

[18] = biological target: T18, panel of 370 protein kinases (Homo sapiens, UniProt O15075); settings: kinase DCAMKL1
T18 construct: purchased Reaction Biology Corporation (assay service)
T18 sequence (O15075 whole entry): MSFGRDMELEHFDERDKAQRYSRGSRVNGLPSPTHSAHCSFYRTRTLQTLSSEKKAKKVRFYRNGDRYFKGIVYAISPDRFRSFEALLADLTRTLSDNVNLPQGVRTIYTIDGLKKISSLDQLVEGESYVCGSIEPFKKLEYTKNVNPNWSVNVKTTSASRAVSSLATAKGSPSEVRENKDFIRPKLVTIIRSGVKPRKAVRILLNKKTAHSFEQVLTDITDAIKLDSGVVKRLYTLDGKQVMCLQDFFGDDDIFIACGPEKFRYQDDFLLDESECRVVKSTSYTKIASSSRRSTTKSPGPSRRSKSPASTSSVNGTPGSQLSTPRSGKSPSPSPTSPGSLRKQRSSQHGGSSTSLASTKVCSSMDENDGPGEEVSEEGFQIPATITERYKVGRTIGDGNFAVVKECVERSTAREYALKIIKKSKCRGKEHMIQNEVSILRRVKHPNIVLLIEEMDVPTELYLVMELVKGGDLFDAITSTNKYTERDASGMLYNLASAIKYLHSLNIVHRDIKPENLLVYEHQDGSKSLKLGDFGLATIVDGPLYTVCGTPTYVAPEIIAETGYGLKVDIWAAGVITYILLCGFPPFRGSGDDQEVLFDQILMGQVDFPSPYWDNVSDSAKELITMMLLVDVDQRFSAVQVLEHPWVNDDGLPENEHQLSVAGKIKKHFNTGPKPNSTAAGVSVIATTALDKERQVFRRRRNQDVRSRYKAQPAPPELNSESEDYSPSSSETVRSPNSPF

[19] = biological target: T19, panel of 370 protein kinases (Homo sapiens, UniProt P51957); settings: 2 h, kinase NEK4; read-out: % Enzyme Activity (relative to DMSO controls)
T19 construct: purchased Reaction Biology Corporation (assay service)

[20] = biological target: T20, panel of 370 protein kinases (Homo sapiens, UniProt P53355); settings: 2 h, kinase DAPK1; read-out: % Enzyme Activity (relative to DMSO controls)
T20 construct: purchased Reaction Biology Corporation (assay service)

[21] = biological target: T21, panel of 370 protein kinases (Homo sapiens, UniProt P51817); settings: 2 h, kinase PRKX; read-out: % Enzyme Activity (relative to DMSO controls)
T21 construct: purchased Reaction Biology Corporation (assay service)

Question: What does the source list for `CCN1CCN(C(=O)c2ccc(Nc3ncc(F)c(-c4ccc5nc(N(C)C)sc5c4)n3)nc2)CC1` [YK-2-69]?
Answer: remaining activity at 1 µM [1]: 60.9%; remaining activity at 1 µM [2]: 83%; remaining activity at 1 µM [3]: 101%; remaining activity at 1 µM [4]: 104%; remaining activity at 1 µM [5]: 85.3%; remaining activity at 1 µM [6]: 5.23%; remaining activity at 1 µM [7]: 85.7%; remaining activity at 1 µM [8]: 94.5%; remaining activity at 1 µM [9]: 83.8%; remaining activity at 1 µM [10]: 28.1%; remaining activity at 1 µM [11]: 96.7%; remaining activity at 1 µM [12]: 98.4%; remaining activity at 1 µM [13]: 97.9%; remaining activity at 1 µM [14]: 72.1%; remaining activity at 1 µM [15]: 107%; % Enzyme Activity (relative to DMSO controls) [16]: 80.68% and 76.25%; % Enzyme Activity (relative to DMSO controls) [17]: 79.77% and 77.94%; % Enzyme Activity (relative to DMSO controls) [18]: 112.23% and 104.96%; remaining activity at 1 µM [19]: 112%; remaining activity at 1 µM [20]: 62.2%; remaining activity at 1 µM [21]: 95.1%
